Results on 43 compounds are retold here after patent US20240228482A1, “COMPOUNDS, COMPOSITIONS AND METHODS OF TREATING CANCER” (HOTSPOT THERAPEUTICS, INC., priority 2021, published 2024).

Bounds are passed on as bounds.

T1 sequence (Q13191 whole entry): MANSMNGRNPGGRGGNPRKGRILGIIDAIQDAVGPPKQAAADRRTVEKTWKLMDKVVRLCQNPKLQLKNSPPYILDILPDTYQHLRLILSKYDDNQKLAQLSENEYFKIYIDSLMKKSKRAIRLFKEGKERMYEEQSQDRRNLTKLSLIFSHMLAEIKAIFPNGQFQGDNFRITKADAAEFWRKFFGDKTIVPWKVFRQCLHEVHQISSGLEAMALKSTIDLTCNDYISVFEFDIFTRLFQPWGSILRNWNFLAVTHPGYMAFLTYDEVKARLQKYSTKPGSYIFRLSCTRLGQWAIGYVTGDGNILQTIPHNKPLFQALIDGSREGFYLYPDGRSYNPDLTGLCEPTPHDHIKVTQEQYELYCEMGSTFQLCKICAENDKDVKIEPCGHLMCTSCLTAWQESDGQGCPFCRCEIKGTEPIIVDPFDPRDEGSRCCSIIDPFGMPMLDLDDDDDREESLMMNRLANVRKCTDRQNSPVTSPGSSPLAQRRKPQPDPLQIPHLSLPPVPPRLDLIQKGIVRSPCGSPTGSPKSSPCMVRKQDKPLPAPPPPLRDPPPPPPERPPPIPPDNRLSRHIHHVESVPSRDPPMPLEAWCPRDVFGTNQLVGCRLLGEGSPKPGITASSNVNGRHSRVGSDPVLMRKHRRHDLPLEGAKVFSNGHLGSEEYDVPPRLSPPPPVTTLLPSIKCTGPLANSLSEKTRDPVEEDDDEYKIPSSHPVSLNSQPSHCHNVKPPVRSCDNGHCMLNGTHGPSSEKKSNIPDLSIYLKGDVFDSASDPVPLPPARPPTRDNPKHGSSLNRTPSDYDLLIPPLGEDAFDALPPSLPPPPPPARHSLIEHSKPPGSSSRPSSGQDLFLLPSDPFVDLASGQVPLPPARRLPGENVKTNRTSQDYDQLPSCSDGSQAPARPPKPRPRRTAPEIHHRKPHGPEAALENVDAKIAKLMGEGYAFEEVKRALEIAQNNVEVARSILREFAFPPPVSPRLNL

The first experiment concerns the target T1, CBL-B (Homo sapiens, UniProt Q13191).
T1 construct: GST
In words: CBL-B TR-FRET IC50 screening (E1/E2 ubiquitination, Biotin-Ubiquitin, Anti GST-Tb donor / Streptavidin-d2 acceptor). Conditions: CBL-B 10 nM final; 11-point titration from 100 uM; binned A-F; read-out: CBL-B TR-FRET activity IC50. Format: biochemical.
With `CC(Cc1nncn1C)c1cccc(-n2cc3c(C(F)(F)F)cccn3c2=O)c1` (stereo not shown) [Compound 1], the IC50 was 0.301 to 1 µM.

Regarding `C[C@H](Cc1nncn1C)c1cccc(-n2cc3c(C(F)(F)F)cccn3c2=O)c1` [Compound 2], the IC50 lay within 0.301 to 1 µM. As to `C[C@@H](Cc1nncn1C)c1cccc(-n2cc3c(C(F)(F)F)cccn3c2=O)c1` [Compound 3], the IC50 was 3 to 10 µM. Regarding `Cn1cnnc1CC1CCc2c1cccc2-n1cc2c(C(F)(F)F)cccn2c1=O` (stereo not shown) [Compound 4], the IC50 was over 10 µM. Regarding `C[C@@H](Sc1nncn1C)c1cccc(-n2cc3c(C(F)(F)F)cccn3c2=O)c1` [Compound 5], the IC50 was over 10 µM. For `C[C@H](Sc1nncn1C)c1cccc(-n2cc3c(C(F)(F)F)cccn3c2=O)c1` [Compound 6], the IC50 was over 10 µM. On to `Cn1cnnc1CC1(c2cccc(-n3cc4c(C(F)(F)F)cc(Br)cn4c3=O)c2)COC1` [Compound 7], for which the IC50 was in the range of 0.1 to 0.3 µM. Take `C=Cc1cc(C(F)(F)F)c2cn(-c3cccc(C4(Cc5nncn5C)COC4)c3)c(=O)n2c1` [Compound 8]: the IC50 lay in the range of 0.1 to 0.3 µM. Regarding `Cn1cnnc1CC1(c2cccc(-n3cc4c(C(F)(F)F)cccn4c3=O)c2)COC1` [Compound 9], the IC50 lay in the range of 0.1 to 0.3 µM. The same measure, in the same setting: the same measure for `Cn1cnnc1CC1(c2cccc(-n3cc4c(C(F)(F)F)cc(CN5CCC6(CC6)C5)cn4c3=O)c2)COC1` [Compound 10]: under 0.1 µM; for `Cn1cnnc1CC1(c2cccc(-n3cc4c(C(F)(F)F)cc(CN5CCC(C)(F)CC5)cn4c3=O)c2)COC1` [Compound 11]: under 0.1 µM; for `C[C@@H]1CN(Cc2cc(C(F)(F)F)c3cn(-c4cccc(C5(Cc6nncn6C)COC5)c4)c(=O)n3c2)CCO1` [Compound 12]: under 0.1 µM.

Turning to `Cn1cnnc1CC1(c2cccc(-n3cc4c(C(F)(F)F)cc(CN5CCC(F)CC5)cn4c3=O)c2)COC1` [Compound 13], the IC50 is under 0.1 µM. Take `Cn1cnnc1CC1(c2cccc(-n3cc4c(C(F)(F)F)cc(CN5CC[C@H](F)C5)cn4c3=O)c2)COC1` [Compound 14]: the IC50 is under 0.1 µM. As for `CN1CC2CCC(C1)N2c1cc(C(F)(F)F)c2cn(-c3cccc(C4(Cc5nncn5C)COC4)c3)c(=O)n2c1` [Compound 15], the IC50 lay in the range of 0.1 to 0.3 µM. For `Cn1cnnc1C[C@@H]1CCc2c1cccc2-n1cc2c(C(F)(F)F)cccn2c1=O` [Compound 17], the IC50 was over 10 µM. Take `Cn1cnnc1CC1(c2cccc(-n3cc4c(C(F)(F)F)cc(C#N)cn4c3=O)c2)COC1` [Compound 18]: the IC50 lay within 0.1 to 0.3 µM. Regarding `CC(=O)c1cc(C(F)(F)F)c2cn(-c3cccc(C4(Cc5nncn5C)COC4)c3)c(=O)n2c1` [Compound 19], the IC50 lay within 1 to 3 µM. In the case of `Cn1cnnc1CC1(c2cccc(-n3cc4c(C(F)(F)F)cc(C(=O)O)cn4c3=O)c2)COC1` [Compound 20], the IC50 lay in the range of 3 to 10 µM. On to `Cn1cnnc1CC1(c2cccc(-n3cc4c(C(F)(F)F)cc(CN5CC6(CC6)C5)cn4c3=O)c2)COC1` [Compound 21], for which the IC50 was under 0.1 µM.

`Cn1cnnc1CC1(c2cccc(-n3cc4c(C(F)(F)F)cc(CN5CCC[C@H](F)C5)cn4c3=O)c2)COC1` [Compound 22]: the IC50 was under 0.1 µM.

Consider `Cn1cnnc1CC1(c2cccc(-n3cc4c(C(F)(F)F)cc(CN5CC(F)C5)cn4c3=O)c2)COC1` [Compound 23], for which the IC50 is under 0.1 µM.

In the case of `Cn1cnnc1CC1(c2cccc(-n3cc4c(C(F)(F)F)cc(CN5CC[C@@H](C#N)C5)cn4c3=O)c2)COC1` [Compound 24], the IC50 was under 0.1 µM.

`Cn1cnnc1CC1(c2cccc(-n3cc4c(C(F)(F)F)cc(CN5CC6CC6C5)cn4c3=O)c2)COC1` (stereo not shown) [Compound 25]: the IC50 was under 0.1 µM. For `Cn1cnnc1C(F)(F)[C@](C)(F)c1cccc(-n2cc3c(C(F)(F)F)cc(CN4CC[C@H](F)C4)cn3c2=O)c1` [Compound 26], the IC50 lay in the range of 0.1 to 0.3 µM.

As to `Cc1c2c(C(F)(F)F)cccn2c(=O)n1-c1cccc(C(C)Cc2nncn2C)c1` (stereo not shown) [Compound 27], the IC50 is over 10 µM. For `Cn1cnnc1C(F)(F)[C@@](C)(F)c1cccc(-n2cc3c(C(F)(F)F)cc(CN4CC[C@H](F)C4)cn3c2=O)c1` [Compound 28], the IC50 is 0.1 to 0.3 µM. Still for that read-out and setting: the same measure for `C[C@H]1CCCN(Cc2cc(C(F)(F)F)c3cn(-c4cccc(C5(Cc6nncn6C)COC5)c4)c(=O)n3c2)C1` [Compound 29]: under 0.1 µM; for `CNC(=O)c1cc(C(F)(F)F)c2cn(-c3cccc(C4(Cc5nncn5C)COC4)c3)c(=O)n2c1` [Compound 30]: 1 to 3 µM; for `CN(C)C(=O)c1cc(C(F)(F)F)c2cn(-c3cccc(C4(Cc5nncn5C)COC4)c3)c(=O)n2c1` [Compound 31]: 0.301 to 1 µM.

Take `C[C@@H](c1cc(C(F)(F)F)c2cn(-c3cccc(C4(Cc5nncn5C)COC4)c3)c(=O)n2c1)N1CCC(F)CC1` [Compound 33]: the IC50 was under 0.1 µM.

Turning to `C[C@H](c1cc(C(F)(F)F)c2cn(-c3cccc(C4(Cc5nncn5C)COC4)c3)c(=O)n2c1)N1CCC(F)CC1` [Compound 34], the IC50 was under 0.1 µM.

With `Cn1cnnc1C(F)(F)[C@](C)(F)c1cccc(-n2cc3c(C(F)(F)F)cc(CN4CCC(F)(F)C4)cn3c2=O)c1` [Compound 35], the IC50 is 3 to 10 µM. As for `Cn1cnnc1C(F)(F)[C@@](C)(F)c1cccc(-n2cc3c(C(F)(F)F)cc(CN4CCC(F)(F)C4)cn3c2=O)c1` [Compound 36], the IC50 was in the range of 0.301 to 1 µM.

Staying with this experiment, now noted: second part of Table 2 (head 'Patent Cmpd No / Updated Activity'); same CBL-B TR-FRET IC50 bins A-F; read-out: Updated Activity.
Turning to `C[C@@H](c1cc(C(F)(F)F)c2cn(-c3cccc([C@H](c4nncn4C)C4CCC4)c3)c(=O)n2c1)N1CCC[C@@H](C(F)(F)F)C1` (single isomer, unassigned) [Compound 614], the IC50 is under 0.1 µM.

Consider `CO[C@H]1C[C@@](c2cccc(-n3cc4c(C(F)(F)F)cc([C@@H](C)N5CC[C@H](F)C5)cn4c3=O)c2)(c2nncn2C)C1` (single isomer, unassigned) [Compound 615], for which the IC50 was in the range of 0.301 to 1 µM. On the same count and under the same terms, the same measure for `CO[C@H]1C[C@@](c2cccc(-n3cc4c(C(F)(F)F)cc([C@H](C)N5CC[C@H](F)C5)cn4c3=O)c2)(c2nncn2C)C1` (single isomer, unassigned) [Compound 616]: under 0.1 µM; for `CO[C@H]1C[C@](c2cccc(-n3cc4c(C(F)(F)F)cc([C@@H](C)N5CC[C@@H](F)C5)cn4c3=O)c2)(c2nncn2C)C1` (single isomer, unassigned) [Compound 617]: 0.1 to 0.3 µM; for `CO[C@H]1C[C@](c2cccc(-n3cc4c(C(F)(F)F)cc([C@H](C)N5CC[C@@H](F)C5)cn4c3=O)c2)(c2nncn2C)C1` (single isomer, unassigned) [Compound 618]: 0.1 to 0.3 µM. On to `Cn1cnnc1[C@H](c1cc(F)cc(-n2cc3c(C(F)(F)F)cc(CN4CC(F)(F)C4)cn3c2=O)c1)C1CCC1` (single isomer, unassigned) [Compound 619], for which the IC50 is over 10 µM. As for `Cn1cnnc1[C@@H](c1cc(F)cc(-n2cc3c(C(F)(F)F)cc(CN4CC(F)(F)C4)cn3c2=O)c1)C1CCC1` (single isomer, unassigned) [Compound 620], the IC50 was in the range of 0.1 to 0.3 µM. Consider `CN1CC[C@]2(CCN(Cc3cc(C(F)(F)F)c4cn(-c5cccc([C@H](c6nncn6C)C6CCC6)c5)c(=O)n4c3)C2)C1=O` (single isomer, unassigned) [Compound 621], for which the IC50 is under 0.1 µM. With `CN1CC[C@@]2(CCN(Cc3cc(C(F)(F)F)c4cn(-c5cccc([C@H](c6nncn6C)C6CCC6)c5)c(=O)n4c3)C2)C1=O` (single isomer, unassigned) [Compound 623], the IC50 is under 0.1 µM.
